Earlier results as cited in US20070065542A1 (Board Of Regents, The University Of Texas System, priority 2005, published 2007).
Where two headings read alike, the source gives them in different places. One block for each compound: values may come before it.

Legend:
[1] = soluble complexes of calcium, from literature
[2] = dissociation constant
[3] = soluble iron complexes and reference complexes, known values
[4] = very high concentration

Structure (SMILES): O=C(O)O [Carbonate anion]
- pK1 [2]: 6.1
- pK2 [2]: 10.3

Structure (SMILES): O=C1O[C@H]([C@@H](O)CO)C(O)=C1O.[Fe+2] [Ferrous monohydrogen ascorbate]
- Stability constant [3]: 1.30

Structure (SMILES): [Cl][Fe]([Cl])[Cl] [ferric chloride]
- pH at which precipitation of iron occurred [4]: 3-4

Next, values leading:

- Stability constant [1]: 2.19
Structure (SMILES): O=C([O-])CC(O)C(=O)[O-].[Ca+2] (stereo not drawn) [CaMal]

- pK1 [2]: 3.87
Structure (SMILES): CC(O)C(=O)O (stereo not drawn) [Lactic Acid]
